Experiments:
[1] = The drug is tested on WLS-039 corresponding to human gut metagenome with ENA study accession number: PRJEB37062 and ENA sample accession number: ERS12561746 for biotransformation under anaerobic condition. The drug concentrations were measured over 9 timepoints collected between 0 and 24 hours of incubation by liquid-chromatography-coupled mass spectrometry (LC–MS); details: 2 µM
[2] = human gut metagenome, 24 h, 2 µM
[3] = human gut metagenome, 24 h, 2 µM; remark: listed apart in the source
[4] = human gut metagenome, 24 h, 2 µM; remark: listed apart in the source
[5] = The drug is tested on WLS-090 corresponding to human gut metagenome with ENA study accession number: PRJEB37062 and ENA sample accession number: ERS12561753 for biotransformation under anaerobic condition. The drug concentrations were measured over 9 timepoints collected between 0 and 24 hours of incubation by liquid-chromatography-coupled mass spectrometry (LC–MS); details: 2 µM
[6] = The drug is tested on Z-016 corresponding to mouse gut metagenome with ENA study accession number: PRJEB37062 and ENA sample accession number: ERS12561815 for biotransformation under anaerobic condition. The drug concentrations were measured over 9 timepoints collected between 0 and 24 hours of incubation by liquid-chromatography-coupled mass spectrometry (LC–MS); details: 2 µM
[7] = human gut metagenome, 24 h, 2 µM; remark: listed apart in the source
[8] = The drug is tested on Z-004 corresponding to metagenome with ENA study accession number: PRJEB37062 and ENA sample accession number: ERS12561804 for biotransformation under anaerobic condition. The drug concentrations were measured over 9 timepoints collected between 0 and 24 hours of incubation by liquid-chromatography-coupled mass spectrometry (LC–MS); details: 2 µM
[9] = human gut metagenome, 24 h, 2 µM; remark: listed apart in the source
[10] = The drug is tested on WLS-086 corresponding to human gut metagenome with ENA study accession number: PRJEB37062 and ENA sample accession number: ERS12561752 for biotransformation under anaerobic condition. The drug concentrations were measured over 9 timepoints collected between 0 and 24 hours of incubation by liquid-chromatography-coupled mass spectrometry (LC–MS); details: 2 µM
[11] = human gut metagenome, 24 h, 2 µM; remark: listed apart in the source
[12] = The drug is tested on Z-008 corresponding to metagenome with ENA study accession number: PRJEB37062 and ENA sample accession number: ERS12561808 for biotransformation under anaerobic condition. The drug concentrations were measured over 9 timepoints collected between 0 and 24 hours of incubation by liquid-chromatography-coupled mass spectrometry (LC–MS); details: 2 µM
[13] = The drug is tested on Z-005 corresponding to metagenome with ENA study accession number: PRJEB37062 and ENA sample accession number: ERS12561805 for biotransformation under anaerobic condition. The drug concentrations were measured over 9 timepoints collected between 0 and 24 hours of incubation by liquid-chromatography-coupled mass spectrometry (LC–MS); details: 2 µM
[14] = human gut metagenome, 24 h, 2 µM; remark: listed apart in the source
[15] = The drug is tested on WLS-098 corresponding to human gut metagenome with ENA study accession number: PRJEB37062 and ENA sample accession number: ERS12561754 for biotransformation under anaerobic condition. The drug concentrations were measured over 9 timepoints collected between 0 and 24 hours of incubation by liquid-chromatography-coupled mass spectrometry (LC–MS); details: 2 µM
[16] = The drug is tested on WLS-310 corresponding to human gut metagenome with ENA study accession number: PRJEB37062 and ENA sample accession number: ERS12561785 for biotransformation under anaerobic condition. The drug concentrations were measured over 9 timepoints collected between 0 and 24 hours of incubation by liquid-chromatography-coupled mass spectrometry (LC–MS); details: 2 µM
[17] = The drug is tested on WLS-006 corresponding to human gut metagenome with ENA study accession number: PRJEB37062 and ENA sample accession number: ERS12561741 for biotransformation under anaerobic condition. The drug concentrations were measured over 9 timepoints collected between 0 and 24 hours of incubation by liquid-chromatography-coupled mass spectrometry (LC–MS); details: 2 µM
[18] = human gut metagenome, 24 h, 2 µM; remark: listed apart in the source
[19] = The drug is tested on Z-030 corresponding to mouse gut metagenome with ENA study accession number: PRJEB37062 and ENA sample accession number: ERS12561829 for biotransformation under anaerobic condition. The drug concentrations were measured over 9 timepoints collected between 0 and 24 hours of incubation by liquid-chromatography-coupled mass spectrometry (LC–MS); details: 2 µM
[20] = The drug is tested on Z-025 corresponding to rabbit gut metagenome with ENA study accession number: PRJEB37062 and ENA sample accession number: ERS12561824 for biotransformation under anaerobic condition. The drug concentrations were measured over 9 timepoints collected between 0 and 24 hours of incubation by liquid-chromatography-coupled mass spectrometry (LC–MS); details: 2 µM
Also: call rule not given here.

**Q.** Which results are given for `C[C@@H](CO)NC(=O)[C@@H]1C=C2c3cccc4[nH]cc(c34)C[C@H]2N(C)C1.O=C(O)/C=C\C(=O)O` [ERGONOVINE MALEATE]?
**A.** Bacterial Biotransformation [1]: Compound metabolized; Bacterial Biotransformation [2]: Compound metabolized; Bacterial Biotransformation [3]: Compound NOT metabolized; Bacterial Biotransformation [4]: Compound metabolized; Bacterial Biotransformation [5]: Compound metabolized; Bacterial Biotransformation [6]: Compound NOT metabolized; Bacterial Biotransformation [7]: Compound metabolized; Bacterial Biotransformation [8]: Compound NOT metabolized; Bacterial Biotransformation [9]: Compound NOT metabolized; Bacterial Biotransformation [10]: Compound metabolized; Bacterial Biotransformation [11]: Compound metabolized; Bacterial Biotransformation [12]: Compound NOT metabolized; Bacterial Biotransformation [13]: Compound NOT metabolized; Bacterial Biotransformation [14]: Compound metabolized; Bacterial Biotransformation [15]: Compound NOT metabolized; Bacterial Biotransformation [16]: Compound metabolized; Bacterial Biotransformation [17]: Compound metabolized; Bacterial Biotransformation [18]: Compound metabolized; Bacterial Biotransformation [19]: Compound NOT metabolized; Bacterial Biotransformation [20]: Compound NOT metabolized

**Q.** With `CCN(CC)C(C)CN1c2ccccc2Sc2ccccc21` (stereo not given) [ETHOPROPAZINE] as the compound, how does the “Bacterial Biotransformation” value [1] read?
**A.** Its value is “Compound metabolized”.

**Q.** What about the “Bacterial Biotransformation” value [2] of the same compound?
**A.** The value was “Compound metabolized”.

**Q.** And the “Bacterial Biotransformation” value [3]?
**A.** Its value is “Compound metabolized”.

**Q.** What about the “Bacterial Biotransformation” value [4] of the same compound?
**A.** Its value is “Compound metabolized”.

**Q.** What about the “Bacterial Biotransformation” value [5] of the same compound?
**A.** The value was “Compound metabolized”.

**Q.** What about the “Bacterial Biotransformation” value [6] of the same compound?
**A.** The value was “Compound NOT metabolized”.

**Q.** And the “Bacterial Biotransformation” value [7]?
**A.** The value was “Compound metabolized”.

**Q.** What about the “Bacterial Biotransformation” value [8] of the same compound?
**A.** Its value is “Compound metabolized”.

**Q.** What about the “Bacterial Biotransformation” value [9] of the same compound?
**A.** Its value is “Compound metabolized”.

**Q.** What about the “Bacterial Biotransformation” value [10] of the same compound?
**A.** The value was “Compound metabolized”.

**Q.** And the “Bacterial Biotransformation” value [11]?
**A.** The value was “Compound metabolized”.

**Q.** And the “Bacterial Biotransformation” value [12]?
**A.** Its value is “Compound NOT metabolized”.

**Q.** And the “Bacterial Biotransformation” value [13]?
**A.** The value was “Compound metabolized”.

**Q.** And the “Bacterial Biotransformation” value [14]?
**A.** The value was “Compound metabolized”.

**Q.** And the “Bacterial Biotransformation” value [15]?
**A.** The value was “Compound metabolized”.

**Q.** And the “Bacterial Biotransformation” value [16]?
**A.** The value was “Compound metabolized”.

**Q.** And the “Bacterial Biotransformation” value [17]?
**A.** Its value is “Compound metabolized”.

**Q.** What about the “Bacterial Biotransformation” value [18] of the same compound?
**A.** The value was “Compound metabolized”.

**Q.** And the “Bacterial Biotransformation” value [19]?
**A.** Its value is “Compound NOT metabolized”.

**Q.** What about the “Bacterial Biotransformation” value [20] of the same compound?
**A.** The value was “Compound NOT metabolized”.

**Q.** For `Cc1nc(-c2ccc(OCC(C)C)c(C#N)c2)sc1C(=O)O` [FEBUXOSTAT], which “Bacterial Biotransformation” value [1] is on record?
**A.** Its value is “Compound metabolized”.

**Q.** And the “Bacterial Biotransformation” value [2]?
**A.** Its value is “Compound metabolized”.

**Q.** And the “Bacterial Biotransformation” value [3]?
**A.** Its value is “Compound metabolized”.

**Q.** And the “Bacterial Biotransformation” value [4]?
**A.** The value was “Compound NOT metabolized”.

**Q.** And the “Bacterial Biotransformation” value [5]?
**A.** The value was “Compound metabolized”.

**Q.** And the “Bacterial Biotransformation” value [6]?
**A.** The value was “Compound metabolized”.

**Q.** And the “Bacterial Biotransformation” value [7]?
**A.** The value was “Compound metabolized”.

**Q.** What about the “Bacterial Biotransformation” value [8] of the same compound?
**A.** The value was “Compound NOT metabolized”.

**Q.** What about the “Bacterial Biotransformation” value [9] of the same compound?
**A.** The value was “Compound metabolized”.

**Q.** And the “Bacterial Biotransformation” value [10]?
**A.** The value was “Compound metabolized”.

**Q.** What about the “Bacterial Biotransformation” value [11] of the same compound?
**A.** Its value is “Compound metabolized”.

**Q.** And the “Bacterial Biotransformation” value [12]?
**A.** Its value is “Compound NOT metabolized”.

**Q.** And the “Bacterial Biotransformation” value [13]?
**A.** The value was “Compound metabolized”.

**Q.** And the “Bacterial Biotransformation” value [14]?
**A.** The value was “Compound metabolized”.

**Q.** What about the “Bacterial Biotransformation” value [15] of the same compound?
**A.** Its value is “Compound metabolized”.

**Q.** What about the “Bacterial Biotransformation” value [16] of the same compound?
**A.** The value was “Compound metabolized”.

**Q.** And the “Bacterial Biotransformation” value [17]?
**A.** The value was “Compound metabolized”.

**Q.** And the “Bacterial Biotransformation” value [18]?
**A.** The value was “Compound metabolized”.

**Q.** And the “Bacterial Biotransformation” value [19]?
**A.** Its value is “Compound NOT metabolized”.

**Q.** And the “Bacterial Biotransformation” value [20]?
**A.** The value was “Compound NOT metabolized”.

**Q.** Which “Bacterial Biotransformation” value [1] does the source give for `CC(C)(C(=O)O)c1ccc(C(O)CCCN2CCC(C(O)(c3ccccc3)c3ccccc3)CC2)cc1` (stereo not given) [FEXOFENADINE] here?
**A.** Its value is “Compound NOT metabolized”.

**Q.** What about the “Bacterial Biotransformation” value [2] of the same compound?
**A.** Its value is “Compound NOT metabolized”.

**Q.** What about the “Bacterial Biotransformation” value [3] of the same compound?
**A.** The value was “Compound NOT metabolized”.

**Q.** And the “Bacterial Biotransformation” value [4]?
**A.** The value was “Compound NOT metabolized”.

**Q.** And the “Bacterial Biotransformation” value [5]?
**A.** The value was “Compound NOT metabolized”.

**Q.** What about the “Bacterial Biotransformation” value [6] of the same compound?
**A.** The value was “Compound NOT metabolized”.

**Q.** What about the “Bacterial Biotransformation” value [7] of the same compound?
**A.** The value was “Compound NOT metabolized”.

**Q.** And the “Bacterial Biotransformation” value [8]?
**A.** The value was “Compound NOT metabolized”.

**Q.** And the “Bacterial Biotransformation” value [9]?
**A.** Its value is “Compound NOT metabolized”.

**Q.** What about the “Bacterial Biotransformation” value [10] of the same compound?
**A.** The value was “Compound NOT metabolized”.

**Q.** And the “Bacterial Biotransformation” value [11]?
**A.** The value was “Compound NOT metabolized”.

**Q.** What about the “Bacterial Biotransformation” value [12] of the same compound?
**A.** Its value is “Compound NOT metabolized”.

**Q.** And the “Bacterial Biotransformation” value [13]?
**A.** Its value is “Compound NOT metabolized”.

**Q.** What about the “Bacterial Biotransformation” value [14] of the same compound?
**A.** Its value is “Compound NOT metabolized”.

**Q.** And the “Bacterial Biotransformation” value [15]?
**A.** The value was “Compound NOT metabolized”.

**Q.** What about the “Bacterial Biotransformation” value [16] of the same compound?
**A.** The value was “Compound NOT metabolized”.

**Q.** What about the “Bacterial Biotransformation” value [17] of the same compound?
**A.** The value was “Compound NOT metabolized”.

**Q.** What about the “Bacterial Biotransformation” value [18] of the same compound?
**A.** Its value is “Compound NOT metabolized”.

**Q.** And the “Bacterial Biotransformation” value [19]?
**A.** Its value is “Compound NOT metabolized”.

**Q.** And the “Bacterial Biotransformation” value [20]?
**A.** The value was “Compound NOT metabolized”.

**Q.** Which results are given for `OCCN1CCN(CCCN2c3ccccc3Sc3ccc(C(F)(F)F)cc32)CC1` [FLUPHENAZINE]?
**A.** Bacterial Biotransformation [1]: Compound metabolized; Bacterial Biotransformation [2]: Compound metabolized; Bacterial Biotransformation [3]: Compound metabolized; Bacterial Biotransformation [4]: Compound metabolized; Bacterial Biotransformation [5]: Compound metabolized; Bacterial Biotransformation [6]: Compound NOT metabolized; Bacterial Biotransformation [7]: Compound metabolized; Bacterial Biotransformation [8]: Compound metabolized; Bacterial Biotransformation [9]: Compound metabolized; Bacterial Biotransformation [10]: Compound metabolized; Bacterial Biotransformation [11]: Compound metabolized; Bacterial Biotransformation [12]: Compound NOT metabolized; Bacterial Biotransformation [13]: Compound metabolized; Bacterial Biotransformation [14]: Compound metabolized; Bacterial Biotransformation [15]: Compound NOT metabolized; Bacterial Biotransformation [16]: Compound metabolized; Bacterial Biotransformation [17]: Compound NOT metabolized; Bacterial Biotransformation [18]: Compound NOT metabolized; Bacterial Biotransformation [19]: Compound NOT metabolized; Bacterial Biotransformation [20]: Compound metabolized
